Patent US12673954B2 (BRISTOL-MYERS SQUIBB COMPANY, priority 2021, dated 2026)
Where two headings read alike, the source gives them in different places.

Assays:
[1] = test system: IRF pathway, THP1-Dual™ cells; experiment: STING reporter assay in THP1-Dual cells, IRF pathway (Lucia luciferase, QUANTI-Luc); type: cell-based, human; settings: THP1-Dual cells, 10% human plasma, 20 hours, Lucia luciferase, 100% activation = 100 μM cGAMP, read-out: IRF (EC50 μM)
Method in brief: (§1)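 Activation normalised between DMSO-only baseline and 100 μM cGAMP maximum, after 20 h compound exposure (starting at 100 μM final) at 37° C, 5% CO2. Supernatant SEAP (QUANTI-Blue, OD620) reports NF-κB; secreted luciferase (QUANTI-Luc, RLU at 5 min) reports IRF.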

[2] = test system: NF-κB pathway, THP1-Dual™ cells; experiment: STING reporter assay in THP1-Dual cells, NF-κB pathway (SEAP, QUANTI-Blue); type: cell-based, human; settings: THP1-Dual cells, 10% human plasma, 20 hours, SEAP, 100% activation = 100 μM cGAMP, read-out: NFkB (EC50 μM)
Method in brief: as §1

SMILES | EC50 [1] [µM] | EC50 [2] [µM] | EC50 ([1]; Homo sapiens, THP1-Dual, 20 h) [µM] | EC50 ([2]; Homo sapiens, THP1-Dual, 20 h) [µM]
COC(OC(=O)c1cc(F)cc2cc(CNC(=O)c3cnn4cccnc34)oc12)C(F)(F)F (single isomer, unassigned) [EXAMPLE 320, 2,2,2-Trifluoro-1-methoxyethyl 5-fluoro-2-((pyrazolo[1,5-a]pyrimidine-3-carboxamido)methyl)benzofuran-7-carboxylate] | 1.4 | 1.4 | – | –
CC(OC(=O)c1ccc(Cl)c2cc(CNC(=O)c3cnn4cccnc34)oc12)C(F)(F)F (centres unmarked) [EXAMPLE 311, 1,1,1-Trifluoropropan-2-yl 4-chloro-2-((pyrazolo[1,5-a]pyrimidine-3-carboxamido)methyl)benzofuran-7-carboxylate] | 2 | 2.3 | – | –
CCOC(OC(=O)c1cccc2cc(CN3CCc4ccncc4C3=O)oc12)C(F)(F)F (racemic) [EXAMPLE 210, 1-Ethoxy-2,2,2-trifluoroethyl 2-((1-oxo-3,4-dihydro-2,7-naphthyridin-2(1H)-yl)methyl)benzofuran-7-carboxylate] | – | – | 30 | 25
CC(OC(=O)c1ccc(F)c2cc(CNC(=O)c3cnn4cccnc34)oc12)C(F)(F)F (single isomer, unassigned) [EXAMPLE 310, 1,1,1-Trifluoropropan-2-yl 4-fluoro-2-((pyrazolo[1,5-a]pyrimidine-3-carboxamido)methyl)benzofuran-7-carboxylate] | 37 | 56 | – | –
COC(=O)c1cccc2cc(CNC(=O)c3cnn4cc(C)cnc34)oc12 [EXAMPLE 11, Methyl 2-((6-methylpyrazolo[1,5-a]pyrimidine-3-carboxamido)methyl) benzofuran-7-carboxylate] | 6.1 | 6.7 | – | –
COc1cc(C(=O)OC(C)C(F)(F)F)c2oc(CNC(=O)c3cnn4cccnc34)cc2c1 (single isomer, unassigned) [EXAMPLE 346, 1,1,1-Trifluoropropan-2-yl 5-methoxy-2-((pyrazolo[1,5-a]pyrimidine-3-carboxamido)methyl)benzofuran-7-carboxylate] | 3.2 | 2.3 | – | –
COC(=O)c1cc(Cl)cc2cc(CNC(=O)c3cncc4[nH]c(C)nc34)oc12 [Example 71, Methyl 5-chloro-2-((2-methyl-3H-imidazo[4,5-c]pyridine-7-carboxamido)methyl)benzofuran-7-carboxylate] | – | – | 24 | 33
Cc1cc(C(=O)O)c2oc(CNC(=O)c3cncc4cccnc34)cc2c1 [EXAMPLE 192, 2-((1,6-naphthyridine-8-carboxamido)methyl)-5-methylbenzofuran-7-carboxylic acid] | – | – | 79 | 94
Cc1cc(C(=O)O)c2oc(CNC(=O)c3cncc4cccnc34)c(Cl)c2c1 [EXAMPLE 178, 2-((1,6-naphthyridine-8-carboxamido)methyl)-3-chloro-5-methylbenzofuran-7-carboxylic acid] | – | – | 42 | 50
CC(F)(F)COC(=O)c1cccc2cc(CN3CCc4ccncc4C3=O)oc12 [EXAMPLE 212, 2,2-Difluoropropyl 2-((1-oxo-3,4-dihydro-2,7-naphthyridin-2(1H)-yl)methyl)benzofuran-7-carboxylate] | – | – | 52 | 58
CC(OC(=O)c1cc(F)cc2cc(CNC(=O)c3cnc4cccnn34)oc12)C(F)(F)F (single isomer, unassigned) [EXAMPLE 315, 1,1,1-Trifluoropropan-2-yl 5-fluoro-2-((imidazo[1,2-b]pyridazine-3-carboxamido)methyl)benzofuran-7-carboxylate] | 2.1 | 1.9 | – | –
COC(=O)c1cc(Br)cc2cc(CN3Cc4ccncc4C3=O)oc12 [Example 82, Methyl 5-bromo-2-((3-oxo-1,3-dihydro-2H-pyrrolo[3,4-c]pyridin-2-yl)methyl)benzofuran-7-carboxylate] | – | – | 27 | 20
COC(=O)c1cccc2cc(CNC(=O)c3cnn4cccnc34)oc12 [EXAMPLE 9, Methyl 2-((pyrazolo[1,5-a]pyrimidine-3-carboxamido)methyl) benzofuran-7-carboxylate] | 2.1 | 1.8 | – | –
COC(=O)c1cc(Cl)cc2cc(Cn3ccc4ncncc4c3=O)oc12 [Example 75, Methyl 5-chloro-2-((5-oxopyrido[4,3-d]pyrimidin-6(5H)-yl)methyl)benzofuran-7-carboxylate] | – | – | 22 | 37

Next, values leading:

EC50 [1] [µM] | EC50 [2] [µM] | EC50 ([1]; Homo sapiens, THP1-Dual, 20 h) [µM] | EC50 ([2]; Homo sapiens, THP1-Dual, 20 h) [µM] | SMILES
– | – | 4.3 | 5.9 | COC(=O)c1cc(C)cc2c(C(F)(F)F)c(CNC(=O)c3cnn4cccnc34)oc12 [EXAMPLE 123, Methyl 5-methyl-2-((pyrazolo[1,5-a]pyrimidine-3-carboxamido)methyl)-3-(trifluoromethyl)benzofuran-7-carboxylate]
– | – | 5.5 | 6.3 | COC(=O)c1cc(Cl)cc2cc(CN3CCc4ccncc4C3=O)oc12 [Example 77, Methyl 5-chloro-2-((1-oxo-3,4-dihydro-2,7-naphthyridin-2(1H)-yl)methyl)benzofuran-7-carboxylate]
– | – | 6.8 | 9.3 | COC(=O)c1cccc2cc(CNC(=O)c3cncnc3OC)oc12 [EXAMPLE 16, Methyl 2-((4-methoxypyrimidine-5-carboxamido)methyl)benzofuran-7-carboxylate]
– | – | 1.8 | 2.1 | COC(=O)c1cc(C)cc2cc(CNC(=O)c3cncnc3OC)oc12 [Example 94, Methyl 2-((4-methoxypyrimidine-5-carboxamido)methyl)-5-methylbenzofuran-7-carboxylate]
– | – | 3.5 | 3.4 | COC(=O)c1ccc(C)c2cc(Cn3ccc4ccncc4c3=O)oc12 [EXAMPLE 32]
– | – | 0.78 | 0.61 | CC(C)OC(=O)c1cc(Cl)cc2cc(CNC(=O)c3cnn4cccnc34)oc12 [EXAMPLE 240, Isopropyl 5-chloro-2-((pyrazolo[1,5-a]pyrimidine-3-carboxamido)methyl)benzofuran-7-carboxylate]
– | – | 5.7 | 3.6 | COc1cc(C(=O)OC(C)C(F)(F)F)c2oc(CNC(=O)c3cnn4cccnc34)cc2c1 (single isomer, unassigned) [EXAMPLE 345, 1,1,1-Trifluoropropan-2-yl 5-methoxy-2-((pyrazolo[1,5-a]pyrimidine-3-carboxamido)methyl)benzofuran-7-carboxylate]
– | – | 21 | 20 | COC(=O)c1cc(C)cc2cc(CN3Cc4ccncc4C3=O)oc12 [Example 88, Methyl 5-methyl-2-((3-oxo-1,3-dihydro-2H-pyrrolo[3,4-c]pyridin-2-yl)methyl)benzofuran-7-carboxylate]
– | – | 3.1 | 3 | COC(OC(=O)c1cc(F)cc2cc(CNC(=O)c3cnc4cccnn34)oc12)C(F)(F)F (single isomer, unassigned) [EXAMPLE 313, 2,2,2-Trifluoro-1-methoxyethyl 5-fluoro-2-((imidazo[1,2-b]pyridazine-3-carboxamido)methyl)benzofuran-7-carboxylate]
– | – | 0.63 | 0.67 | COC(=O)c1ccc(Cl)c2cc(CNC(=O)c3cnn4cccnc34)oc12 [EXAMPLE 26, Methyl 4-chloro-2-((pyrazolo[1,5-a]pyrimidine-3-carboxamido)methyl)benzofuran-7-carboxylate]
– | – | 2.4 | 2.1 | COC[C@@H](C)OC(=O)c1cc(Cl)cc2cc(CNC(=O)c3cnn4cccnc34)oc12 [EXAMPLE 242, (R)-1-Methoxypropan-2-yl 5-chloro-2-((pyrazolo[1,5-a]pyrimidine-3-carboxamido)methyl)benzofuran-7-carboxylate]
– | – | 6.1 | 5.6 | C[C@H](NC(=O)c1cnn2cccnc12)c1cc2cc(Cl)cc(C(=O)O[C@H](C)C(F)(F)F)c2o1 [EXAMPLE 268, (R)-1,1,1-Trifluoropropan-2-yl 5-chloro-2-((S)-1-(pyrazolo[1,5-a]pyrimidine-3-carboxamido)ethyl)benzofuran-7-carboxylate]
– | – | 1.3 | 1.3 | CC(NC(=O)c1cnn2cccnc12)c1cc2cc(F)cc(C(=O)OC3CC(F)(F)C3)c2o1 (centres unmarked) [EXAMPLE 306, 3,3-Difluorocyclobutyl 5-fluoro-2-(1-(pyrazolo[1,5-a]pyrimidine-3-carboxamido)ethyl)benzofuran-7-carboxylate]
– | – | 1.7 | 1.8 | COC(OC(=O)c1cc(Cl)cc2cc(CNC(=O)c3cnn4cccnc34)oc12)C(F)(F)F (single isomer, unassigned) [EXAMPLE 331, 2,2,2-Trifluoro-1-methoxyethyl 5-chloro-2-((pyrazolo[1,5-a]pyrimidine-3-carboxamido)methyl)benzofuran-7-carboxylate]
– | – | 6.6 | 5.5 | Cc1cc(CC(=O)OCC(F)(F)F)c2oc(CNC(=O)c3cnn4cccnc34)cc2c1 [EXAMPLE 278, 2,2,2-Trifluoroethyl 2-(5-methyl-2-((pyrazolo[1,5-a]pyrimidine-3-carboxamido)methyl)benzofuran-7-yl)acetate]
– | – | 13 | 19 | CCOC(=O)c1c(C)ccc2cc(CNC(=O)c3cnn4cccnc34)oc12 [EXAMPLE 379, Ethyl 6-methyl-2-((pyrazolo[1,5-a]pyrimidine-3-carboxamido)methyl)benzofuran-7-carboxylate]
– | – | 1.5 | 1.4 | O=C(SCC(F)(F)F)c1cc(F)cc2cc(CNC(=O)c3cnn4cccnc34)oc12 [EXAMPLE 388, S-(2,2,2-Trifluoroethyl) 5-fluoro-2-((pyrazolo[1,5-a]pyrimidine-3-carboxamido)methyl)benzofuran-7-carbothioate]
